Measured values as given in patent publication US12053459B2, “CDK2 inhibitors and methods of using the same” (Cedilla Therapeutics, Inc., priority 2021, dated 2024).

Assays:
CDK2/Cyclin E1(14-475) = CDK2/Cyclin E1(14-475) (Homo sapiens, UniProt P24941); assay: Caliper LabChip EZ Reader mobility shift assay, inhibition of CDK2/Cyclin E1 activity; type: biochemical; details: class symbols A-D
Method: Inhibition of CDK2/Cyclin E1 activity in the presence of compounds of the present disclosure was evaluated using a Caliper LabChip® EZ Reader mobility shift assay. In the assay, activated CDK2/Cyclin E1 catalyzes the phosphorylation of a fluorescently tagged peptide 5-FAM-QSPKKG-CONH2 (PerkinElmer, FL Peptide 18) which induces a difference in capillary electrophoresis mobility. The peptide substrate and product were measured, and the conversion ratio was used to determine the inhibition (as % activity and IC50 values) of CDK2/Cyclin E1. Reactions contained 50 mM HEPES pH 7.5, 10 mM MgCl2, 1 mM EDTA, 2 mM DTT, 0.01% Brij35, 0.5 mg/mL BSA, 0.1% DMSO, 2.5 nM CDK2/Cyclin E1(14-475), 100 μM ATP, and 1.5 μM fluorescent peptide substrate.
Dose titrations of inhibitors in 100% DMSO were combined with 3.25 nM CDK2/Cyclin E1(14-475) and 130 μM of ATP in reaction buffer. The mixtures were incubated for 30 minutes before the addition of fluorescent peptide substrate to initiate the kinase reaction. The final conditions were 2.5 nM CDK2/Cyclin E1(14-475), 100 μM ATP, and 1.5 μM fluorescent peptide. The reactions were stopped after 100 minutes with the addition of EDTA (6 mM final EDTA concentration). The stopped reactions were analyzed on a Caliper LabChip® EZ Reader II. The conversion ratios were normalized to yield % activity, plotted against compound concentration, and fit to a four-parameter equation to determine the IC50 for each compound.

Kuramochi cells = assay: BrdU cell proliferation assay (colorimetric ELISA), Kuramochi cells; type: cell-based; details: class symbols A-D
Method: A BrdU assay was used as a measure of proliferation based on the DNA replication process of proliferating cells. BrdU, a pyrimidine analog, is added to the cell culture and incorporated into the DNA of proliferating cells. The presence of the BrdU analog was then measured through a colorimetric ELISA. After fixation and permeabilization of cells, peroxidase-conjugated antibody recognizing BrdU is added and allowed to incubate, followed by thorough washing to remove unbound antibody. In order to quantify the amount of bound antibody, peroxidase substrate is added and produces a color that can be measured at 450 nm.
On day −1, Kuramochi cells (Sekisui XenoTech JCRB0098) were seeded at 2,000 cells/well in columns 2-12 of a 96 well plate (Corning, CLS3596) in 150 uL media and allowed to adhere overnight at 37 degree with 5% CO2. In order to assess specificity of the compounds, Kuramochi RB^KO cells were also plated and treated, as RB^KO cells were not expected to show a proliferative response to CCNE/CDK specific inhibitors.
On day 0, the source plate was prepared by adding 10 mM compounds and performing 3-fold serial dilutions for a 4-point dose response of each compound. Using a multichannel pipette, 2 uL of the contents of the source plate were stamped into an intermediate plate with 500 uL of RPMI 1640 Media, GlutaMAX Supplement (Life Technologies, 61870127) in each well of a Nunc 96 DeepWell™ plate, non-treated 96 DeepWell plate, 2 mL/well, sterile, natural, 60/cs (Sigma Z717274) and mixed thoroughly. 50 uL from row A of this intermediate plate were added to rows A-H of one plate of previously seeded Kuramochi cells, and each subsequent row of the intermediate plate was added to a full plate of cells.
On day 4, the plates were developed using the BrdU ELISA Cell Proliferation Assay according to manufacturer's instructions (Roche, 11647229001). Briefly, BrdU was diluted 1:100 in Gibco®, Opti-MEM® and 20 μL/well was added, shaken for 10 minutes at 350 rpm, and then returned to the incubator for 1 hour. Following incubation, the medium was discarded, and the cells were fixed by adding 200 μL of Fix/Denature solution. The anti-BrdU peroxidase antibody was diluted 1:1000 in OptiMEM, added at 100 μL/well, and incubated while shaking (350 rpm) for one hour. Three washes with PBS were performed to remove any unbound antibody, followed by the addition of 100 μL of substrate solution to each well. […] was then added to halt the reaction, and plates were read out using an Envision spectrophotometer (Perkin Elmer) set to read 450 nm absorbance. Background absorbance values from empty wells were subtracted from all samples and then normalized to DMSO treated wells.

| Compound | IC50 (CDK2/Cyclin E1(14-475)) [µM] | IC50 (Kuramochi cells) [µM] |
| --- | --- | --- |
| CNC(=O)[C@H](CCCc1ccccc1)NC(=O)C1CN(C(=O)Cc2c[nH]c3cc(Cl)ccc23)CC2CN(C(=O)c3ccc4c(c3)CC(=O)N4)CC21 (single isomer, unassigned) [I-22] | > 10 | > 10 |
| CNC(=O)[C@H](CCCc1ccccc1)NC(=O)C1CN(C(=O)Cc2c[nH]c3cc(Cl)ccc23)CC2CN(C(=O)c3ccc4c(c3)CC(=O)N4)CC21 (single isomer, unassigned) [I-23] | > 10 | > 10 |
| CNC(=O)[C@H](CCCc1ccccc1)NC(=O)C1CN(C(=O)Cc2c[nH]c3cc(Cl)ccc23)CC2CN(C(=O)c3ccc4c(c3)n(C)c(=O)n4C(C)C)CC21 (single isomer, unassigned) [I-86] | > 10 | > 10 |
| CNC(=O)[C@H](CCCc1ccccc1)NC(=O)C1CN(C(=O)Cc2c[nH]c3cc(Cl)ccc23)CC2CN(C(=O)c3ccc4c(c3)n(C)c(=O)n4C(C)C)CC21 (single isomer, unassigned) [I-87] | ≤ 0.5 | > 10 |
| COc1cc(C(=O)N2CC3CN(C(=O)Cc4c[nH]c5cc(Cl)ccc45)CC(C(=O)NCC(=O)N(C)CCCc4ccccc4)C3C2)ccc1OC(C)C (single isomer, unassigned) [I-100] | ≤ 0.5 | 0.5 to 5 |
| COc1cc(C(=O)N2CC3CN(C(=O)Cc4c[nH]c5cc(Cl)ccc45)CC(C(=O)NCC(=O)N(C)CCCc4ccccc4)C3C2)ccc1OC(C)C (single isomer, unassigned) [I-101] | > 10 | > 10 |
| CNC(=O)[C@H](Cc1c[nH]c2ccccc12)NC(=O)C1CN(C(=O)Cc2c[nH]c3cc(Cl)ccc23)CC2CN(C(=O)c3ccc(OC(C)C)c(OC)c3)CC21 (single isomer, unassigned) [I-110] | > 10 | > 10 |
| CNC(=O)[C@H](Cc1c[nH]c2ccccc12)NC(=O)C1CN(C(=O)Cc2c[nH]c3cc(Cl)ccc23)CC2CN(C(=O)c3ccc(OC(C)C)c(OC)c3)CC21 (single isomer, unassigned) [I-111] | ≤ 0.5 | > 10 |
| COc1cc(C(=O)N2CC3CN(C(=O)Cc4c[nH]c5cc(Cl)ccc45)CC(C(=O)N[C@H]4CCCN(Cc5ccccc5)C4)C3C2)ccc1OC(C)C (single isomer, unassigned) [I-117] | 0.5 to 5 | > 10 |
| COc1cc(C(=O)N2CC3CN(C(=O)Cc4c[nH]c5cc(Cl)ccc45)CC(C(=O)N[C@H]4CCCN(Cc5ccccc5)C4)C3C2)ccc1OC(C)C (single isomer, unassigned) [I-118] | > 10 | > 10 |
| CNC(=O)[C@H](CCCc1cccc(O)c1)NC(=O)C1CN(C(=O)Cc2c[nH]c3cc(Cl)ccc23)CC2CN(C(=O)c3ccc(OC(C)C)c(OC)c3)CC21 (single isomer, unassigned) [I-152] | > 10 | > 10 |
| CNC(=O)[C@H](CCCc1cccc(O)c1)NC(=O)C1CN(C(=O)Cc2c[nH]c3cc(Cl)ccc23)CC2CN(C(=O)c3ccc(OC(C)C)c(OC)c3)CC21 (single isomer, unassigned) [I-153] | 0.5 to 5 | > 10 |
| CNC(=O)[C@H](CCCc1ccccc1)NC(=O)C1CN(C(=O)c2cn3ccncc3n2)CC2CN(C(=O)c3ccc(OC(C)C)c(OC)c3)CC21 (single isomer, unassigned) [I-194] | – | > 10 |
| CNC(=O)[C@H](CCCc1ccccc1)NC(=O)C1CN(C(=O)c2cn3ccncc3n2)CC2CN(C(=O)c3ccc(OC(C)C)c(OC)c3)CC21 (single isomer, unassigned) [I-195] | > 10 | > 10 |
| CNC(=O)[C@H](CCCc1ccccc1)NC(=O)C1CN(C(=O)c2coc(Cl)n2)CC2CN(C(=O)c3ccc(OC(C)C)c(OC)c3)CC21 (single isomer, unassigned) [I-232] | > 10 | > 10 |
| CNC(=O)[C@H](CCCc1ccccc1)NC(=O)C1CN(C(=O)c2coc(Cl)n2)CC2CN(C(=O)c3ccc(OC(C)C)c(OC)c3)CC21 (single isomer, unassigned) [I-233] | > 10 | > 10 |

| Compound | IC50 (CDK2/Cyclin E1(14-475)) [µM] | IC50 (Kuramochi cells) [µM] |
| --- | --- | --- |
| COc1cc(C(=O)N2CC3CN(C(=O)Cc4c[nH]c5cc(Cl)ccc45)CC(C(=O)N[C@@H](CCCc4cccc(O)c4)C(=O)NCCCCCN)C3C2)ccc1OC(C)C (single isomer, unassigned) [I-257] | 0.5 to 5 | > 10 |
| CNC(=O)[C@H](CCCc1ccccc1)NC(=O)C1CN(C(=O)Cc2c[nH]c3cc(Cl)ccc23)CC2CN(C(=O)c3ccc(O)cc3)CC21 (stereo partly drawn) [I-4] | > 10 | – |
| CNC(=O)[C@H](CCCc1ccccc1)NC(=O)C1CN(C(=O)Cc2c[nH]c3cc(Cl)ccc23)CC2CN(C(=O)c3ccc(OC)c(OC)c3)CC21 (stereo partly drawn) [I-33] | 5 to 10 | – |
| CNC(=O)[C@H](CCCc1ccccc1)NC(=O)C1CN(C(=O)Cc2c[nH]c3cc(Cl)ccc23)CC2CN(C(=O)c3ccc4ncccc4c3)CC21 (stereo partly drawn) [I-36] | > 10 | – |
| CNC(=O)[C@H](CCCc1ccccc1)NC(=O)C1CN(C(=O)Cc2c[nH]c3cc(Cl)ccc23)CC2CN(C(=O)c3cccc(OC)c3)CC21 (stereo partly drawn) [I-49] | – | > 10 |
| CNC(=O)[C@H](CCCc1ccccc1)NC(=O)C1CN(C(=O)Cc2c[nH]c3cc(Cl)ccc23)CC2CN(C(=O)C3CCCCC3)CC21 (stereo partly drawn) [I-51] | – | > 10 |
| CNC(=O)[C@H](CCCc1ccccc1)NC(=O)C1CN(C(=O)Cc2c[nH]c3cc(Cl)ccc23)CC2CN(C(=O)c3ccc4c(c3)CCO4)CC21 (stereo partly drawn) [I-53] | – | > 10 |
| CNC(=O)[C@H](CCCc1ccccc1)NC(=O)C1CN(C(=O)Cc2c[nH]c3cc(Cl)ccc23)CC2CN(C(=O)c3cccc(-c4cccnc4)c3)CC21 (stereo partly drawn) [I-63] | – | > 10 |
| CNC(=O)[C@H](CCCc1ccccc1)NC(=O)C1CN(C(=O)Cc2c[nH]c3cc(Cl)ccc23)CC2CN(C(=O)c3ncc(-c4ccccc4)s3)CC21 (stereo partly drawn) [I-68] | – | > 10 |
| CNC(=O)[C@H](CCCc1ccccc1)NC(=O)C1CN(C(=O)Cc2c[nH]c3cc(Cl)ccc23)CC2CN(C(=O)c3ccc4oc(=O)n(C)c4c3)CC21 (stereo partly drawn) [I-76] | – | > 10 |
| CNC(=O)[C@H](CCCC(C)(C)C)NC(=O)C1CN(C(=O)Cc2c[nH]c3cc(Cl)ccc23)CC2CN(C(=O)c3ccc(OC(C)C)c(OC)c3)CC21 (stereo partly drawn) [I-96] | – | > 10 |
| COc1cc(C(=O)N2CC3CN(C(=O)Cc4c[nH]c5cc(Cl)ccc45)CC(C(=O)NCCCCc4ccccc4)C3C2)ccc1OC(C)C (stereo not drawn) [I-119] | – | > 10 |
| CNC(=O)[C@@H](Cc1ccccc1)NC(=O)C1CN(C(=O)Cc2c[nH]c3cc(Cl)ccc23)CC2CN(C(=O)c3ccc(OC(C)C)c(OC)c3)CC21 (stereo partly drawn) [I-120] | – | > 10 |
| CNC(=O)[C@@H](Cc1ccc(O)cc1)NC(=O)C1CN(C(=O)Cc2c[nH]c3cc(Cl)ccc23)CC2CN(C(=O)c3ccc(OC(C)C)c(OC)c3)CC21 (stereo partly drawn) [I-121] | – | > 10 |
| CNC(=O)[C@H](CCCc1ccccc1)NC(=O)C1CN(C(=O)Cc2cccnc2)CC2CN(C(=O)c3ccc(OC(C)C)c(OC)c3)CC21 (stereo partly drawn) [I-224] | > 10 | – |
| CNC(=O)[C@H](CCCc1ccccc1)NC(=O)C1CN(CCc2c[nH]c3cc(Cl)ccc23)CC2CN(C(=O)c3ccc(OC(C)C)c(OC)c3)CC21 (stereo partly drawn) [I-254, 5-(2-(6-chloro-1H-indol-3-yl)ethyl)-2-(4-isopropoxy-3-methoxybenzoyl)-N—((S)-1-(methylamino)-1-oxo-5-phenylpentan-2-yl)octahydro-1H-pyrrolo[3,4-c]pyridine-7-carboxamide] | > 10 | – |
